Measured values as given in ChEMBL document CHEMBL1157539, “Thousands of chemical starting points for antimalarial lead identification” (Nature, 2010).

The compounds below were run on Plasmodium falciparum (assay: GSK_TCMDC: Inhibition of Plasmodium falciparum 3D7 in whole erythrocytes, using parasite LDH activity as an index of growth.). Settings: Plasmodium falciparum, 3D7.
Type: functional, organism-based
For `c1ccc2[nH]c(-c3ccc(-c4ccc(CN5CCN(c6ccncc6)CC5)cc4)cc3)nc2c1`, the XC50 was 164 nM. With `Cc1cccc(C(=O)N2CCN(Cc3cccc(NC(=O)c4ccco4)c3)CC2)c1` the XC50 was 761 nM. With `N#Cc1ccc(N(CCOc2ccc(Cl)c(F)c2)Cc2ccccc2C(F)(F)F)cc1C(F)(F)F` the XC50 was 685 nM. `C#CCOc1ccc(N2C(N)=NC(N)=NC2(C)C)cc1` gave an XC50 of 65.8 nM. Work on `COc1cc2nccc(Nc3ccc(OCc4ccc(NC(C)=O)cc4)cc3)c2cc1OC` yielded an XC50 of 553 nM. `CC(C)CNCc1cccc(-c2cccc(CN(CCCN3CCN(C)CC3)C(=O)CCC3CCCC3)c2)c1` showed an XC50 of 624 nM. Compound `Fc1cccc(COc2ccc(Nc3ncnc4sc(C#Cc5ncc[nH]5)cc34)cc2Cl)c1` has an XC50 of 134 nM. `N#Cc1ccc2c(c1)CCN(CCC1CCC(NC(=O)/C=C/c3nc4ccccc4s3)CC1)CC2` (stereo not drawn) showed an XC50 of 829 nM. `CS(=O)(=O)CCNCc1nc(-c2ccc3c(Nc4ccc(Cl)cc4F)ccnc3c2)cs1` gave an XC50 of 1080 nM. With `CO/N=C(\C)c1ccc2c(c1)CCN(CCC1CCC(NC(=O)/C=C/c3ccc(F)cc3)CC1)CC2` (stereo not drawn) the XC50 was 1070 nM. `O=C(c1ccccc1)N(Cc1ccccc1-c1ccc(CNCCc2ccccc2)cc1)C1CCN(Cc2ccccc2)CC1` gave an XC50 of 995 nM. Compound `CS(=O)(=O)c1ccc(CCNCc2ccc(-c3ccc(CN(C(=O)c4ccco4)C4CCN(Cc5ccccc5)CC4)cc3)nc2)cc1` has an XC50 of 884 nM. With `O=C(NCC(CCN1CCC(c2c[nH]c3ccccc23)CC1)c1ccccc1)Nc1ccc(Cl)c(Cl)c1` (stereo not drawn) the XC50 was 833 nM. For `COc1cc(NC(=O)N2CCOC(CCN3CCC4(CCc5ccccc54)CC3)(c3ccc(Cl)c(Cl)c3)C2)cc(OC)c1` (stereo not drawn), the XC50 was 819 nM. In the case of `Cc1cc(N(C)C)nc(Nc2ccc(NC(=O)C3CCCCC3)cc2)n1`, the XC50 is reported as 1110 nM. `CC(C)(C)C/C=C\c1ccc(C(=O)NCC2CC2)cc1` gave an XC50 of 850 nM. For `Nc1c2c(nc3ccc(NC(=O)c4ccccc4)cc13)CCCC2`, the XC50 was 611 nM. Compound `CCCNC(=O)c1cncc(-c2ccc(CNC3Cc4ccccc4C3)cc2)c1` has an XC50 of 848 nM. In the case of `O=C(NCCN1CCC(c2ccncc2)CC1)c1cccc(Nc2nccc(Nc3ccc(Oc4ccccc4)cc3)n2)c1`, the XC50 is reported as 168 nM. `COc1cc(C2NCC3(CCOCC3)c3cc4c(cc32)OCCO4)cc(OC)c1OC` (stereo not drawn) showed an XC50 of 169 nM. `Cc1cc(N[C@@H](CC(C)C)C(=O)NCCc2ccccc2)nc(NCCc2ccc(F)cc2)n1` showed an XC50 of 771 nM. `Cc1ccccc1OCC(O)CN1CCC(C2CCN(CC(O)COc3ccccc3C)CC2)CC1` (stereo not drawn) showed an XC50 of 307 nM. `Cc1cc(O)c(CN(C)Cc2ccc(N(C)C)cc2)cc1C(C)C` showed an XC50 of 550 nM. For `CCC(C)NC(=O)CN1CN(c2ccccc2)C2(CCN(C(=O)c3ccc4ccccc4c3)CC2)C1=O` (stereo not drawn), the XC50 was 627 nM. With `CCOc1cc(C(=O)NC2CCN(Cc3ccccc3)CC2)ccc1-c1nc2cc(Cl)c(Cl)cc2[nH]1` the XC50 was 469 nM. In the case of `Cc1[nH]c(C)c(-c2ccc(OCCn3cnc(Cl)c3Cl)cc2)c(=O)c1Br`, the XC50 is reported as 853 nM. With `O=C(/C=C/c1ccc(Cl)c(Cl)c1)NCCCCCN1CCCC(C(=O)Nc2ccc(F)c(Cl)c2)C1` (stereo not drawn) the XC50 was 903 nM. `Nc1c(Cl)cc(C(O)CNCCCCCOCCc2ccc3occc3c2)cc1Cl` (stereo not drawn) showed an XC50 of 690 nM. Work on `C#CC[C@@H](NC(N)=O)C(=O)O` yielded an XC50 of 189 nM. Work on `CC(C)COc1ccc(Cl)cc1Cc1nc(-c2nc3ccc(N4CCN(C)CC4)nc3[nH]2)cs1` yielded an XC50 of 751 nM. Work on `FC(F)(F)COc1ccc2ccccc2c1CNCCCCCCNCc1c(OCC(F)(F)F)ccc2ccccc12` yielded an XC50 of 352 nM. `CCn1c(C=Cc2cc(Br)ccc2O)nc2ccccc2c1=O` gave an XC50 of 654 nM. `Cc1nc(C)c(-c2ccc(Br)cc2)c(O)c1Br` was tested, and the XC50 was 638 nM. `COCC(C)n1c(SC(C)C(=O)Nc2cc([N+](=O)[O-])ccc2Cl)nc2ccccc2c1=O` (stereo not drawn) gave an XC50 of 229 nM. Work on `C=CCn1c(Sc2ccc(C#N)c([N+](=O)[O-])c2)nnc1-c1ccc(Cl)cc1` yielded an XC50 of 667 nM. With `CS(=O)(=O)c1ccc2nc(NC(=O)c3csnn3)sc2c1` the XC50 was 666 nM. `O=C(Nc1ccc(C(F)(F)F)cc1)c1ccc(S(=O)(=O)NC2CCN(Cc3ccccc3)C2)cc1` (stereo not drawn) gave an XC50 of 618 nM. With `CCOc1cc(C)ccc1C1CCN(CCCCNC(=O)c2cccc(-c3ccc(C(F)(F)F)cc3)c2)CC1` the XC50 was 937 nM. `O=C(/C=C/c1ccc(Cl)cc1)NCCCCCN1CCCC(C(=O)Nc2ccc(Cl)cc2)C1` (stereo not drawn) showed an XC50 of 1050 nM. With `CC(=O)Nc1cc(C(=O)Nc2ccc(C3=NCCN3)cc2)ccc1C(=O)Nc1ccc(C2=NCCN2)cc1` the XC50 was 133 nM. For `Cc1nc2ccc3nc(NC(=O)c4ccno4)sc3c2s1`, the XC50 was 656 nM. `COc1ccc(C(=O)CCC(=O)N(Cc2ccc(-c3ccc(CNCCc4ccc(S(C)(=O)=O)cc4)cn3)cc2)Cc2ccc3c(c2)OCO3)cc1F` gave an XC50 of 943 nM. Work on `CCN(CC)CCCOc1ccc(Nc2nccc(-c3c(-c4cccc(NC(=O)c5c(F)cccc5F)c4)nn4ccccc34)n2)cc1F` yielded an XC50 of 407 nM. Work on `Oc1ccc(Nc2nc(NCc3ccco3)c3ccccc3n2)cc1` yielded an XC50 of 674 nM. In the case of `CCc1c(CCNC/C=C/C=C/CNCCc2ccc(OC)c(OC)c2CC)ccc(OC)c1OC`, the XC50 is reported as 968 nM. Compound `Cc1cc2c(cc1C(F)(F)F)N(C(=O)Nc1cnc(OCCN(C)C)c(C(F)(F)F)c1)CC2` has an XC50 of 966 nM. `Cc1ccc(O)cc1Nc1ccnc2cc(-c3csc(CN4CCN(C)CC4)n3)ccc12` gave an XC50 of 597 nM. `CC(C)NCc1ccc(-c2ccc(-c3nc4cc(F)ccc4[nH]3)cc2)cc1` gave an XC50 of 213 nM. Compound `CC(C)(C)CNc1noc(-c2sccc2Br)n1` has an XC50 of 1120 nM. `CC1(C)N=C(N)N=C(NOCc2ccc(Cl)c(Cl)c2)N1` gave an XC50 of 228 nM. Compound `CCc1cccc(-n2c(=O)c3cccnc3n2CC(=O)NC2CCCC2)c1` has an XC50 of 932 nM. `CC(C)CCN1CCCN(Cc2cccc(C(=O)Nc3ccc(C(C)(C)C)cc3)c2)CC1` was tested, and the XC50 was 1100 nM. `C/C=C/COc1ccc2ccccc2c1CNCCCCCCCCNCc1c(OC/C=C/C)ccc2ccccc12` showed an XC50 of 908 nM. `CCCCNC(=O)c1cc(CNC2CCCCC2)ccc1-c1cccc(CNCc2ccc(-c3ccccc3)cc2)c1` gave an XC50 of 531 nM. `Cn1cc(C(=O)Nc2cccc(-c3cccc(-c4nc5cc(F)ccc5[nH]4)c3)c2)n(C)c1=O` was tested, and the XC50 was 388 nM. `COc1ccccc1-c1nc2c(ccc3nc(N)nc(N)c32)[nH]1` showed an XC50 of 176 nM. `Nc1ncc(-c2cc3ccccc3o2)c(N)n1` gave an XC50 of 1410 nM. Work on `O=C(Nc1ccc(Br)c(Cl)c1)c1cc([N+](=O)[O-])cc2cn[nH]c12` yielded an XC50 of 1060 nM. `CCOc1ccc(C(=O)Nc2nonc2-c2ccc(OC)c(OC)c2)cc1` was tested, and the XC50 was 868 nM. `CC(CN1CCN(C)CC1)C(=O)Nc1cccc(-c2cccc(-c3nc4ccccc4[nH]3)c2)c1` (stereo not drawn) was tested, and the XC50 was 1010 nM. Compound `O=C(Nc1cccc(F)c1)N[C@H]1CCN(CCCCCNC(=O)C2CC2c2ccc(Cl)c(Cl)c2)C1` (stereo partly drawn) has an XC50 of 991 nM. For `O=C(NCCCN(Cc1ccc(F)cc1)c1ccccn1)C(c1cc2ccccc2o1)N1CCN(C(c2ccccc2)c2ccccc2)CC1` (stereo not drawn), the XC50 was 838 nM. Compound `O=c1cc(NCCCNC2CCc3ccc(Cl)cc32)[nH]c2ccccc12` (stereo not drawn) has an XC50 of 862 nM. Work on `CCOc1ccc2c(c1)OC(c1ccccc1)(C(F)(F)F)NC2=O` (stereo not drawn) yielded an XC50 of 167 nM. `CCC(CC)n1cc2c(ccc3nc(N)nc(N)c32)n1` gave an XC50 of 81.4 nM. With `NC1CCCN(Cc2cccc(-c3ccc(-c4nc5cc(F)ccc5[nH]4)cc3)c2)C1` (stereo not drawn) the XC50 was 566 nM. `CCCCCCCCn1ccc(=N)cc1` was tested, and the XC50 was 840 nM. `CC[C@H]1CN2CC[C@H]1C[C@@H]2[C@@H](O)c1ccnc2ccccc12` showed an XC50 of 279 nM. `CC1CCCN(c2ccc(NC(=O)c3cccs3)cc2[N+](=O)[O-])C1` (stereo not drawn) gave an XC50 of 669 nM. `CC(=O)Nc1ccc(OCCCCN(Cc2ccccc2OC(F)(F)F)c2ccc(C(F)(F)F)c(C#N)c2)c(Cl)c1` showed an XC50 of 529 nM. For `COCCN(C(=O)Cc1cccs1)C(C(=O)NCc1ccc(OC)cc1)c1ccc(C(C)C)cc1` (stereo not drawn), the XC50 was 845 nM. With `COc1ccc2nccc([C@@H](O)CN3CCC(NCc4cc5cc(Cl)ccc5[nH]4)CC3)c2c1` the XC50 was 128 nM. Compound `COc1ccc2ccccc2c1CCCCN1CCN(CC(c2ccc(F)cc2)N2CCC(N3CCCC3)CC2)CC1` (stereo not drawn) has an XC50 of 619 nM. Work on `CCCN1CCN(CCCNC(=O)c2cc3c(Cl)nc4ccc(C)cc4c3s2)CC1` yielded an XC50 of 802 nM. Work on `CC(C)(C)c1ccc(NC(=O)c2cccc(CN3CCCN(Cc4cccc(C#N)c4)CC3)c2)cc1` yielded an XC50 of 755 nM. `COc1ccccc1-c1csc(C(=O)NC2CCCCN(Cc3ccc(C(C)(C)C)cc3)C2)c1` (stereo not drawn) gave an XC50 of 1530 nM. Work on `CC(C)CCNC(=O)[C@@H]1[C@H]2C(=O)N(C3CCCCC3)C(=O)[C@H]2[C@H]2C=C[C@@H]3C(c4ccc(C(C)(C)C)cc4)=NO[C@@H]3N21` yielded an XC50 of 788 nM. Compound `NC1CCCN(Cc2ccc(-c3cccc(-c4nc5ccccc5[nH]4)c3)cc2)C1` (stereo not drawn) has an XC50 of 721 nM. Compound `O=C(/C=C/c1ccc(Cl)cc1)NCCCCCN1CCCN(C(=O)Nc2ccc(F)c(Cl)c2)CC1` has an XC50 of 781 nM. In the case of `Cc1cc(C(=O)Nc2ccc(-c3ccccc3)cc2)no1`, the XC50 is reported as 694 nM. Compound `NS(=O)(=O)c1cccc(Nc2nccc(-c3c(-c4cccc(NC(=O)c5c(F)cccc5F)c4)nn4ccccc34)n2)c1` has an XC50 of 73.6 nM. Compound `COc1cc(NC(=O)c2c(-c3c(Cl)cccc3Cl)noc2C)c(OC)cc1Cl` has an XC50 of 916 nM. `O=c1cc(NCCCNCc2cccc(SC(F)(F)F)c2)[nH]c2ccccc12` gave an XC50 of 725 nM. Work on `CO/C(=C\C=C\c1cc2cc(Cl)c(Cl)cc2[nH]1)C(=O)N[C@H]1CN2CCC1CC2` yielded an XC50 of 1210 nM. `CC(=O)N1N=C(c2ccc(Cl)cc2)Sc2c1nc(-c1ccccc1)n2C(C)=O` was tested, and the XC50 was 493 nM. With `O=C1C(c2ccccc2)=C(Nc2cccc(OC(F)(F)C(F)F)c2)c2ccccc21` the XC50 was 180 nM. `CN(Cc1cc(C(F)(F)F)cc(C(F)(F)F)c1)C(=O)C(Cc1ccc(F)cc1)C1CCCNC1` (stereo not drawn) gave an XC50 of 1540 nM. Work on `COc1ccc2nccc(NC(=O)N3CCC(NCc4cc5ccccc5[nH]4)CC3)c2n1` yielded an XC50 of 556 nM. With `Nc1ccc(-c2csc(Nc3ccncc3)n2)cc1` the XC50 was 939 nM. In the case of `COc1ccc(-n2nc(C)cc2C(=O)NCc2ccc(-c3c(C)noc3C)cc2)cc1`, the XC50 is reported as 980 nM. Compound `CCOc1cc(C(=O)NCCN(C(C)C)C(C)C)ccc1-c1nc2cc(Cl)ccc2[nH]1` has an XC50 of 778 nM. `O=C(NC1CC1)C1CCN(Cc2cc3ccccc3n2Cc2ccc(Cl)cc2)CC1` gave an XC50 of 489 nM. Work on `COc1cc(Cc2cnc(N)nc2N)cc(OCCCCCC(=O)O)c1OC` yielded an XC50 of 231 nM. `Cc1[nH]c(C)c(-c2ccc(/C=C/c3ccccn3)cc2)c(=O)c1Cl` gave an XC50 of 516 nM. `COc1cccc(C(=O)C2CC2CN2CC=C(c3c[nH]c4cccc(Br)c34)CC2)c1` (stereo not drawn) showed an XC50 of 752 nM. Compound `Cc1cccc(CNc2nccc3[nH]c4ccccc4c23)c1` has an XC50 of 1900 nM. In the case of `COc1cc(C(C)C)ccc1N1CCN(CCCCNC(=O)c2ccc(NC(=O)c3ccc(Cl)cc3)cc2)CC1`, the XC50 is reported as 576 nM. For `CC(=O)c1cccc2cc(C(=O)NC3CCC(CCN4CCc5ccc(C#N)cc5C4)CC3)[nH]c12` (stereo not drawn), the XC50 was 787 nM.
